Reference: ChEMBL document CHEMBL1201862, “PubChem BioAssay data set” (2004)
Active and inactive are the calls of the source.

Assays:
[1] = target: T1, Corticotropin-releasing factor receptor 2/Corticotropin-releasing factor-binding protein (Homo sapiens, UniProt P24387+Q13324); assay: activators of CRF receptor 2 with binding protein – uHTS hits, confirmation (AID 602473); format: functional; settings: read-out: EC50_Mean
T1 sequence (Q13324 whole entry): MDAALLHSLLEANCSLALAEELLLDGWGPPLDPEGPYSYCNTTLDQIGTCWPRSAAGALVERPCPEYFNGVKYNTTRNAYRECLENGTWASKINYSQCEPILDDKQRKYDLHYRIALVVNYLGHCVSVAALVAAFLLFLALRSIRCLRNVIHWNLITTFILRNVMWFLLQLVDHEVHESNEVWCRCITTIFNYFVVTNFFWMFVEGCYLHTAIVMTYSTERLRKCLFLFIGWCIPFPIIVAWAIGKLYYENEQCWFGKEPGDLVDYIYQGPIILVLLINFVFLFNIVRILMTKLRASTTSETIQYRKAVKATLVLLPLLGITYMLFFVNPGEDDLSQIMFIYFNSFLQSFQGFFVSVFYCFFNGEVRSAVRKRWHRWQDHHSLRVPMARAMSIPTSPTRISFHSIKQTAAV
T1 sequence (P24387 whole entry): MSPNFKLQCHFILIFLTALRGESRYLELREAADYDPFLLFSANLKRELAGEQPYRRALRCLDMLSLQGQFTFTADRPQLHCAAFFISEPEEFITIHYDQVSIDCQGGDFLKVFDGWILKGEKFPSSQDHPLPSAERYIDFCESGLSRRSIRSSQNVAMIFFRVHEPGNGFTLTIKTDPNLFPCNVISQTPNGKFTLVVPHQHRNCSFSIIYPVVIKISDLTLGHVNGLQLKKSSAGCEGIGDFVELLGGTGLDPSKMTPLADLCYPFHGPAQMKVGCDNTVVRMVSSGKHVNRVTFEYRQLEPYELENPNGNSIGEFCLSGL

[2] = target: T1, Corticotropin-releasing factor receptor 2/Corticotropin-releasing factor-binding protein; assay: Dose Response confirmation of uHTS hits for small molecule antagonists of the CRF-binding protein and CRF-R2 receptor complex.; format: functional; settings: read-out: IC50_Mean
[3] = CRF-BP/CRF-R2 complex antagonists, dose response, cell-based, uHTS hits, 384-well (AID 651639); format: functional, Homo sapiens; settings: read-out: IC50_Mean
Streptokinase A = target: T2, Streptokinase A (Streptococcus pyogenes serotype M1, UniProt P10520); assay: S. pyogenes streptokinase expression inhibitors, potency, dose response, plasminogen activation absorbance, OD405 (AID 1914); format: functional, Streptococcus pyogenes M1 GAS;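 also: secreted streptokinase activity via plasminogen activation per viability signal from cell pellet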
T2 sequence (P10520 whole entry): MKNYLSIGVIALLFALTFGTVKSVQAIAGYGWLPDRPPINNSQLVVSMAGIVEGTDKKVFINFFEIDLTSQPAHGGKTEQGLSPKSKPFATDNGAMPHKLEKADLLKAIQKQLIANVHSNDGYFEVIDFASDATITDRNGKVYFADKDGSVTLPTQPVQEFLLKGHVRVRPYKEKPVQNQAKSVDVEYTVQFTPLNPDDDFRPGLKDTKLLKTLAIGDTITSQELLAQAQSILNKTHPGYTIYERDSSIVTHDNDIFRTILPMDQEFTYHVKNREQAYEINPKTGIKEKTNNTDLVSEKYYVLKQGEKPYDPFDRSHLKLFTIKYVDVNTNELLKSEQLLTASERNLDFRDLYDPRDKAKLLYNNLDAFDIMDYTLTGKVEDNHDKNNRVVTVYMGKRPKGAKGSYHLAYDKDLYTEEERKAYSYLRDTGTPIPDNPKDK

Cytochrome P450 2C19 = Cytochrome P450 2C19 (Homo sapiens, UniProt P33261); assay: Cytochrome panel assay with activity outcomes. Panel member name: p450-cyp2c19 Compounds with AC50 equal or less than 10 uM are considered active; format: functional; settings: read-out: AC50
Sequence of Cytochrome P450 2C19 (P33261 whole entry): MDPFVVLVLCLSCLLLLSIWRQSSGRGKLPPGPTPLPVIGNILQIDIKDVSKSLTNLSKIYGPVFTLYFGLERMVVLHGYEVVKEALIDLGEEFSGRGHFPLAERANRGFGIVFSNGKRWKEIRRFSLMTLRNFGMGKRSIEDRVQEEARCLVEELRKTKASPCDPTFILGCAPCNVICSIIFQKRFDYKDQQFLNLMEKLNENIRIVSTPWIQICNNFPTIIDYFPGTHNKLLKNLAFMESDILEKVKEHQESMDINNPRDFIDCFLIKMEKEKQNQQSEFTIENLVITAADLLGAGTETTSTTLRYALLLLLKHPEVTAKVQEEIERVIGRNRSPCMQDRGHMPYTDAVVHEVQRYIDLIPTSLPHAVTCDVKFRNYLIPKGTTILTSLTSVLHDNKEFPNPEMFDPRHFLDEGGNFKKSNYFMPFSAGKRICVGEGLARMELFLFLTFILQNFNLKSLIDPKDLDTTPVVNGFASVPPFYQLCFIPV

Streptococcus = assay: Group A Streptococcus viability loss, dose response, counter-screen for streptokinase expression inhibitor project, luminescence, BacTiterGlo (AID 1915); format: functional, organism-based;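 also: potency for reduction of bacterial viability or growth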
Cytochrome P450 1A2 = target: T3, Cytochrome P450 1A2 (Homo sapiens, UniProt P05177);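 also: PubChem cytochrome P450 panel assay, CYP1A2 panel member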
T3 sequence (P05177 whole entry): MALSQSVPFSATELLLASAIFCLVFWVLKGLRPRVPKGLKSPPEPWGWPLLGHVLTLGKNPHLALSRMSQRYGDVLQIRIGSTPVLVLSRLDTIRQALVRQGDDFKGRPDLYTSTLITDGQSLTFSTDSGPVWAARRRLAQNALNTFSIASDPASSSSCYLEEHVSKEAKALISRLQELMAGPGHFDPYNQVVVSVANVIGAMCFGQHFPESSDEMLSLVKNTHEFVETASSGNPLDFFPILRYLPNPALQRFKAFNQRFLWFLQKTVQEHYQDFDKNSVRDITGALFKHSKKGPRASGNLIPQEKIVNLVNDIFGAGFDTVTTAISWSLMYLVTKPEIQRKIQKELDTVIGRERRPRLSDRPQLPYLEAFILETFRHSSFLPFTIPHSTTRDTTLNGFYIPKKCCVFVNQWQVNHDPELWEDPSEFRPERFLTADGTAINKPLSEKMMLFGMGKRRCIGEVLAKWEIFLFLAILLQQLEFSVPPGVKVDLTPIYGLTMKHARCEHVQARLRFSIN

[4] = target: Potassium voltage-gated channel subfamily KQT member 2 (Rattus norvegicus, UniProt O88943); assay: KCNQ2 potassium channel inhibitors, dose response, cell-based, automated electrophysiology, set II, rat KCNQ2 (AID 588637); format: functional
Sequence of Potassium voltage-gated channel subfamily KQT member 2 (O88943 whole entry): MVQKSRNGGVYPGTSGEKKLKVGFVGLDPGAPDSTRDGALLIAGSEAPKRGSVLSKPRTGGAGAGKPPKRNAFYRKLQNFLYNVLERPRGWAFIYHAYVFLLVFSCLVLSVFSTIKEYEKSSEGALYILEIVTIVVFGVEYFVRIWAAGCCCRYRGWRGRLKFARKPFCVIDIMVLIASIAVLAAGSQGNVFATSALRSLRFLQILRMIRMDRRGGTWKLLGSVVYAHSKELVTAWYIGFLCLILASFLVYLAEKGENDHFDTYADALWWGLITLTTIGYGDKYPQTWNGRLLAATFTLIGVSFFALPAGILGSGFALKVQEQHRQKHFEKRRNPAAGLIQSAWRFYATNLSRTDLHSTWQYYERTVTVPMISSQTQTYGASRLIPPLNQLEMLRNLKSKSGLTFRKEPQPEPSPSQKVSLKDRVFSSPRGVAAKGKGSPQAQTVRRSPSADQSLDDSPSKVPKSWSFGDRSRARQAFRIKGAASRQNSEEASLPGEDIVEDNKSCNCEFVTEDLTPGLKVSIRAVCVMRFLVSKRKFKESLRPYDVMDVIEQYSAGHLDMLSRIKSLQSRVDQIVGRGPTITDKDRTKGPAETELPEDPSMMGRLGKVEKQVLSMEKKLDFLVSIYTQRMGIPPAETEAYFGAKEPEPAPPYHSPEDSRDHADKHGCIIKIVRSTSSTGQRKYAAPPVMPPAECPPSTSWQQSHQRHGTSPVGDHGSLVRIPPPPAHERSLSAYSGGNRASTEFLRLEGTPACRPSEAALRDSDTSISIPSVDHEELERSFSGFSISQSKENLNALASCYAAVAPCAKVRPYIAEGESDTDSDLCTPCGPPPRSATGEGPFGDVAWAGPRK

Cytochrome P450 2C9 = Cytochrome P450 2C9 (Homo sapiens, UniProt P11712)
Sequence of Cytochrome P450 2C9 (P11712 whole entry): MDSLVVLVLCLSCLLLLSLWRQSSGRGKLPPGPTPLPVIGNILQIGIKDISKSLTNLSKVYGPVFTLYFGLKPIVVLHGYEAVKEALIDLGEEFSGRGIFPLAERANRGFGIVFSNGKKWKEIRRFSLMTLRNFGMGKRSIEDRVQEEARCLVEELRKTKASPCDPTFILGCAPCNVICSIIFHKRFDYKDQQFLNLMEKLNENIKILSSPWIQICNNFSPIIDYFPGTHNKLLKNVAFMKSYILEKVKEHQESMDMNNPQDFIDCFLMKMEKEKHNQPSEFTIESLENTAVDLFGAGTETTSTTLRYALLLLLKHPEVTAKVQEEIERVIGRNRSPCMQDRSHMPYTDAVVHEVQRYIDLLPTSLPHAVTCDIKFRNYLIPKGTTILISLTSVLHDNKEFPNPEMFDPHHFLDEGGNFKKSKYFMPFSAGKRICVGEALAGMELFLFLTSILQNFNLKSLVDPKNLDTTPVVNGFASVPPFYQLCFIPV

[5] = test system: Streptococcus sp. 'group A'; assay: growth inhibition of control SK(-) GAS strain, dose response, counter-screen for streptokinase expression inhibitor project, luminescence, kanamycin, BacTiterGlo, confirmation (AID 1900); format: functional, organism-based
[6] = target: ADP-ribosylation factor GTPase-activating protein 1 (Rattus norvegicus, UniProt Q62848); assay: Fluorescence polarization-based biochemical high throughput dose response screening assay to identify inhibitors of ADP-ribosylation factor GTPase activating protein 1 (ARFGAP1).; format: functional
Sequence of ADP-ribosylation factor GTPase-activating protein 1 (Q62848 whole entry): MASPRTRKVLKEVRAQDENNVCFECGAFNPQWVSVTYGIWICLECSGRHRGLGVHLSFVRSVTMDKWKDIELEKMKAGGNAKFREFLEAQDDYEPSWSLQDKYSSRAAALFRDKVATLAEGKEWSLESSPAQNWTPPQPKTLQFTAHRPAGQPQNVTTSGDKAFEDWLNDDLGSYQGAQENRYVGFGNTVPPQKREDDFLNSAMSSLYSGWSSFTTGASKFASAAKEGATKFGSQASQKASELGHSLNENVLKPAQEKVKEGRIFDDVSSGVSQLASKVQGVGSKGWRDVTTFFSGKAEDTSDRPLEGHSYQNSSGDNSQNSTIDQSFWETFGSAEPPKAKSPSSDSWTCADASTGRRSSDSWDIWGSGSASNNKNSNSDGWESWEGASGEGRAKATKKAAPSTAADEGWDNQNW

Cytochrome P450 2D6 = Cytochrome P450 2D6 (Homo sapiens, UniProt P10635);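 also: CYP2D6 member of a cytochrome P450 panel assay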
Sequence of Cytochrome P450 2D6 (P10635 whole entry): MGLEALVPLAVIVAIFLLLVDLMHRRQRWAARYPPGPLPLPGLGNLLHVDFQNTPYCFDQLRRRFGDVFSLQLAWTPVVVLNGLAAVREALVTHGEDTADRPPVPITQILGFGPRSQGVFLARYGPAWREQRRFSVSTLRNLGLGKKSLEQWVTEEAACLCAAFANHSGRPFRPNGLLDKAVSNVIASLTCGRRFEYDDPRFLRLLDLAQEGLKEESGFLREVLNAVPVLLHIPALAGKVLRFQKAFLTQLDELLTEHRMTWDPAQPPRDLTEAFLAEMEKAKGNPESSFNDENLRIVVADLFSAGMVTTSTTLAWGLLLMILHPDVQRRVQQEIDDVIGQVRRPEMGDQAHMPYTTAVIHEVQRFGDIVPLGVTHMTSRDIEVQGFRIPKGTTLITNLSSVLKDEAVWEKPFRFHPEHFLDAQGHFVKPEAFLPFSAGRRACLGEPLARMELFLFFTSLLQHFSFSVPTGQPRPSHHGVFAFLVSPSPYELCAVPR

INS1 = assay: beta cell apoptosis inhibitors, cytokine rescue, dose response, luminescence, retest (AID 449756); format: functional, cell-based; settings: Rattus norvegicus;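 also: cell death triggered by IL-1 beta plus TNF-alpha plus IFN-gamma mixture; protective hits raise ATP signal compared with cytokine alone wells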
Protein Wnt-3a = Protein Wnt-3a (Mus musculus, UniProt P27467); assay: Wnt3a-driven reporter signaling inhibition, dose response, selectivity assay for Gli-SUFU antagonist project, Wnt-LIGHT cells, luminescence (AID 651570); format: functional; settings: read-out: IC50_Mean;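 also: Wnt-LIGHT reporter cells stimulated with conditioned medium from Wnt3a-producing cells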
Sequence of Protein Wnt-3a (P27467 whole entry): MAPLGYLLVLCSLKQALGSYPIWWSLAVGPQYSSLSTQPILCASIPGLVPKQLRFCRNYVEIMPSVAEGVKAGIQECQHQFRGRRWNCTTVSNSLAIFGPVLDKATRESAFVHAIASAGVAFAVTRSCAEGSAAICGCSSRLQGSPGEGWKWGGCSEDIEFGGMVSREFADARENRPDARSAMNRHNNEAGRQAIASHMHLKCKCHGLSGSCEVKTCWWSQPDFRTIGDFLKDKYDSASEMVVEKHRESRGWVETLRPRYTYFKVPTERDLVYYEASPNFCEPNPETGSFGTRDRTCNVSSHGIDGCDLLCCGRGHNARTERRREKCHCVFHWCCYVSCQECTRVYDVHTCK

CCOC(=O)CSC1=C(C#N)C(c2ccc(Cl)cc2)C(C(=O)OC)C(=O)N1 (centres undefined)
EC50 [1]: > 53 µM (inactive) | IC50 [2]: 26.5 µM (active) | IC50 [3]: 9.62 µM (active)

O=C(CSc1nc2ccccc2c(=O)n1NC(=O)c1ccccc1)c1ccc(Cl)cc1
EC50 (Streptokinase A): 106 µM (active) | AC50 (Cytochrome P450 2C19): 2.24 µM (inconclusive) | EC50 (Streptococcus): > 150 µM (not active) | AC50 (Cytochrome P450 1A2): 6.31 µM (inconclusive) | IC50 [4]: 1.53 µM (active) | AC50 (Cytochrome P450 2C9): 1 µM (inconclusive) | EC50 [5]: 7.26 µM (active)

CCOC(=O)N1CCN(C(=O)CSc2nc(=O)n3cc(C)ccc3n2)CC1
IC50 [6]: 53.2 µM (inactive)

Cc1cc(/C=N/n2cnnc2)c(C)n1-c1ccc(OCc2ccccc2F)cc1
AC50 (Cytochrome P450 2D6): 17.8 µM (inconclusive) | AC50 (INS1): 3.41 µM (active) | IC50 (Protein Wnt-3a): 6.57 µM (active)
